pIC50: −log10 of the molar value. Like-named read-outs stand apart in the source and are kept apart here.
Key:
[1] = target: T1, full length recombinant Pim-1 protein (Homo sapiens, UniProt P11309); test: Pim-1 enzyme assay (HTRF, phosphorylation of biotinylated-BAD (S112) peptide); assay type: biochemical; details: enzyme assay, Pim-1; read-out: Pim_1_IC50
T1 construct: by full length recombinant Pim-1, Pim-2, or Pim-3 protein; hexahistidine tag followed by a thrombin cleavage site (N); made in house; host or cells: Sf9 (baculovirus) or E. coli (pET28)
T1 sequence (P11309 whole entry): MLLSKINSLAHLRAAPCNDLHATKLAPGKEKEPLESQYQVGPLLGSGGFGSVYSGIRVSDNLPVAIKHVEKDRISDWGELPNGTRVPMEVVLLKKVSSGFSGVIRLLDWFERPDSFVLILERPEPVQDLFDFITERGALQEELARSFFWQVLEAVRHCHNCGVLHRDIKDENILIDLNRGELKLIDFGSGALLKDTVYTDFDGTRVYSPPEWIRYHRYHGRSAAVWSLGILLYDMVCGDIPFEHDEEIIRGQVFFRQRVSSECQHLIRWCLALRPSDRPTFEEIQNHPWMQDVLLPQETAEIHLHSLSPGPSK
Summary of the method: (§1)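 Full-length His-tagged Pim-1 or Pim-2 (Sf9 or E. coli expressed, purified) phosphorylated biotinylated BAD (S112) peptide in 60 mM Hepes pH 7.0, 0.05% BSA, 2 mM DTT. Reaction stopped with 3 mM EDTA; phospho-BAD read by HTRF with Eu anti-phospho-BAD antibody and streptavidin-APC. IC50 from percent of control by 4-parameter logistic fit.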

[2] = target: T2, full length recombinant Pim-2 protein (Homo sapiens, UniProt Q9P1W9); test: Pim-2 enzyme assay (HTRF, phosphorylation of biotinylated-BAD (S112) peptide); assay type: biochemical; details: enzyme assay, Pim-2; read-out: Pim2_IC50
T2 construct: by full length recombinant Pim-1, Pim-2, or Pim-3 protein; hexahistidine tag followed by a thrombin cleavage site (N); made in house; host or cells: Sf9 (baculovirus) or E. coli (pET28)
T2 sequence (Q9P1W9 whole entry): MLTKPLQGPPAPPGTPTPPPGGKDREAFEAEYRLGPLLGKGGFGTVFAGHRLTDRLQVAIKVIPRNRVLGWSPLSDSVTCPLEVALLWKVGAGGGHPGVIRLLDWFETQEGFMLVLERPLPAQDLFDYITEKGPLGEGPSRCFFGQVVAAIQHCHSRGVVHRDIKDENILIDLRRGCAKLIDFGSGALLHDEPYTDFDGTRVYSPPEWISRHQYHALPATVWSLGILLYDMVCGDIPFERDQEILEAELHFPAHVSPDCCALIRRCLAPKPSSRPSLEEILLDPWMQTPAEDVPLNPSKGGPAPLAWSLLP
Summary of the method: as §1

[3] = target: T3, full length recombinant Pim-3 protein (Homo sapiens, UniProt Q86V86); test: Pim-3 enzyme assay (HTRF, phosphorylation of biotinylated-BAD (S112) peptide); assay type: biochemical; details: read-out: Pim3 IC50
T3 construct: by full length recombinant Pim-1, Pim-2, or Pim-3 protein; purchased Millipore (UK)
From the text: Pim-3 was purchased from Millipore (UK).
The phosphorylation of biotinylated-BAD (S112) peptide by full length recombinant Pim-1, Pim-2, or Pim-3 protein was detected with streptavidin:Allophycocyanin (APC) conjugate and a europium (Eu) labeled antibody directed against phosphorylated-BAD (S112). […] The fluorescence is directly proportional to the amount of phosphorylated BAD peptide present in the reaction.
A reference compound was included on each assay plate in order to validate that plate; on one plate of every assay run, two additional reference compounds were included.
The final buffer conditions were as follows: 60 mM Hepes, pH 7.0, 0.05% BSA, 2 mM DTT. […] The reaction was stopped by the addition of 3 mM EDTA, and fluorescence was measured by an HTRF® Rubystar microplate reader. For each plate, percent of control (POC) values were calculated for each well. Values for the IC50 IP were estimated using a standard 4-parameter logistic model.

[4] = target: T4, Pim-1 stably transfected into the U2OS human osteogenic sarcoma line (Homo sapiens, UniProt P11309); test: Pim cell assay, phospho-BAD normalized against total BAD, U2OS stably transfected with Pim-1; assay type: cell-based; details: read-out: Pim1_Cell_IC50
T4 construct: expressed in transfected cells; host or cells: U2OS human osteogenic sarcoma line
T4 sequence (P11309 whole entry): as the sequence (P11309 whole entry) above
Summary of the method: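 U2OS cells stably expressing Pim-1 or Pim-2 were plated overnight at 37 °C, then dosed over a 10-point curve (final 0.3% DMSO; DMSO alone as high control). Lysates assayed for phospho- and total BAD by Meso Scale immunoassay; % phosphoprotein = (2×phospho)/(phospho+total)×100.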

[5] = U2OS cells stably transfected with Pim-1, phospho-BAD, high dose […]

Fc1cccc(F)c1-c1ccc2[nH]nc(-c3cncc(O[C@@H]4CNCC[C@H]4F)n3)c2c1 (single isomer, unassigned) [Example 19, 5-(2,6-difluorophenyl)-3-(6-(trans-4-fluoropiperidin-3-yloxy)pyrazin-2-yl)-1H-indazole]
pIC50 [1]: 8.30 | pIC50 [2]: 7.55 | pIC50 [3]: 8.15 | pIC50 [4, 5]: 6.60

COc1nc2ccccc2cc1-c1ccc2[nH]nc(-c3cncc(N4CCC(N)CC4)n3)c2c1 [Example 2, 1-(6-(5-(2-methoxyquinolin-3-yl)-1H-indazol-3-yl)pyrazin-2-yl)piperidin-4-amine]
pIC50 [1]: 7.55 | pIC50 [2]: 6.11 | pIC50 [3]: 7.21 | pIC50 [4, 5]: 5.58

NC1CCN(c2cncc(-c3c[nH]c4ccc(-c5c(F)cccc5F)nc34)c2)CC1 [Example 32, 1-(5-(5-(2,6-difluorophenyl)-1H-pyrrolo[3,2-b]pyridin-3-yl)pyridin-3-yl)piperidin-4-amine]
pIC50 [1]: 7.72 | pIC50 [2]: 6.23 | pIC50 [3]: 7.17 | pIC50 [4]: 6.04

NC1CCN(c2cncc(-c3n[nH]c4ccc(-c5cc6ccccc6nc5O)cc34)n2)CC1 [Example 54, 3-(3-(6-(4-amino-1-piperidinyl)-2-pyrazinyl)-1H-indazol-5-yl)-2-quinolinol]
pIC50 [1]: 8.15 | pIC50 [2]: 6.74 | pIC50 [3]: 8.40 | pIC50 [4, 5]: 5.44

NC1CCN(c2cncc(-c3n[nH]c4ccc(N5CCOCC5)cc34)n2)CC1 [Example 89, 1-(6-(5-(4-morpholinyl)-1H-indazol-3-yl)-2-pyrazinyl)-4-piperidinamine]
pIC50 [1]: 7.55 | pIC50 [2]: 6.52 | pIC50 [3]: 7.31 | pIC50 [4, 5]: 6.06

Nc1cc(-c2ccc3[nH]nc(-c4cncc(N5CCC(N)CC5)n4)c3c2)ccc1N1CCOCC1 [Example 105, 1-(6-(5-(3-amino-4-(4-morpholinyl)phenyl)-1H-indazol-3-yl)-2-pyrazinyl)-4-piperidinamine]
pIC50 [1]: 8.70 | pIC50 [2]: 7.37 | pIC50 [3]: 8.30 | pIC50 [4, 5]: 6.32

CN(C)c1cccc(-c2ccc3[nH]nc(-c4cncc(N5CCC(N)CC5)n4)c3c2)c1 [Example 108, 1-(6-(5-(3-(dimethylamino)phenyl)-1H-indazol-3-yl)-2-pyrazinyl)-4-piperidinamine]
pIC50 [1]: 8.05 | pIC50 [2]: 6.82 | pIC50 [3]: 8.22 | pIC50 [4, 5]: 6.06

NC1CCN(c2cncc(-c3n[nH]c4ccc(-c5ccnc6cc(F)ccc56)cc34)n2)CC1 [Example 110, 1-(6-(5-(7-fluoro-4-quinolinyl)-1H-indazol-3-yl)-2-pyrazinyl)-4-piperidinamine]
pIC50 [1]: 8.10 | pIC50 [2]: 6.82 | pIC50 [3]: 7.64 | pIC50 [4, 5]: 6.11

Nc1nccc(N2CCc3ccc(-c4ccc5[nH]nc(-c6cncc(N7CCC(N)CC7)n6)c5c4)cc32)n1 [Example 113, 4-(6-(3-(6-(4-amino-1-piperidinyl)-2-pyrazinyl)-1H-indazol-5-yl)-2,3-dihydro-1H-indol-1-yl)-2-pyrimidinamine]
pIC50 [1]: 7.77 | pIC50 [2]: 6.26 | pIC50 [3]: 7.48 | pIC50 [4, 5]: < 4.80

Fc1ncc(Cl)cc1-c1ccc2[nH]nc(-c3cncc(O[C@@H]4CCCNC4)n3)c2c1 [Example 117, 5-(5-chloro-2-fluoro-3-pyridinyl)-3-(6-((3R)-3-piperidinyloxy)-2-pyrazinyl)-1H-indazole]
pIC50 [1]: 7.74 | pIC50 [2]: 7.18 | pIC50 [3]: 8.30 | pIC50 [4, 5]: 6.12

CC(C)Oc1cncc(-c2ccc3[nH]nc(-c4cncc(O[C@@H]5CCCNC5)n4)c3c2)c1 [Example 120, 5-(5-(1-methylethoxy)-3-pyridinyl)-3-(6-((3R)-3-piperidinyloxy)-2-pyrazinyl)-1H-indazole]
pIC50 [1]: 8.52 | pIC50 [2]: 7.01 | pIC50 [3]: 8.10 | pIC50 [4, 5]: 6.84

Fc1cccnc1-c1ccc2[nH]nc(-c3cncc(O[C@@H]4CCCNC4)n3)c2c1 [Example 124, 5-(3-fluoro-2-pyridinyl)-3-(6-((3R)-3-piperidinyloxy)-2-pyrazinyl)-1H-indazole]
pIC50 [1]: 7.96 | pIC50 [2]: 7.24 | pIC50 [3]: 7.96 | pIC50 [4, 5]: 6.40

c1ccc(-c2ccc3[nH]nc(-c4cncc(O[C@@H]5CCCNC5)n4)c3c2)cc1 [Example 134, 5-phenyl-3-(6-((3R)-3-piperidinyloxy)-2-pyrazinyl)-1H-indazole]
pIC50 [1]: 8.15 | pIC50 [2]: 7.43 | pIC50 [3]: 7.85 | pIC50 [4, 5]: 6.50

COc1cccc(-c2ccc3[nH]nc(-c4cncc(O[C@@H]5CCCNC5)n4)c3c2)n1 [Example 137, 5-(6-methoxy-2-pyridinyl)-3-(6((3R)-3-piperidinyloxy)-2-pyrazinyl)-1H-indazole]
pIC50 [1]: 8.10 | pIC50 [2]: 7.20 | pIC50 [3]: 8.22 | pIC50 [4, 5]: 6.23

CC(C)Oc1cccc(-c2ccc3[nH]nc(-c4cncc(O[C@@H]5CCCNC5)n4)c3c2)c1 [Example 146, 5-(3-(1-methylethoxy)phenyl)-3-(6-((3R)-3-piperidinyloxy)-2-pyrazinyl)-1H-indazole]
pIC50 [1]: 8.15 | pIC50 [2]: 7.08 | pIC50 [3]: 7.51 | pIC50 [4, 5]: 6.00

C(=C\C1CC1)/c1ccc2[nH]nc(-c3cncc(O[C@@H]4CCCNC4)n3)c2c1 [Example 147, 5-((E)-2-cyclopropylethenyl)-3-(6-((3R)-3-piperidinyloxy)-2-pyrazinyl)-1H-indazole]
pIC50 [1]: 8.15 | pIC50 [2]: 6.98 | pIC50 [3]: 7.89 | pIC50 [4, 5]: 6.14

C1=C(c2ccc3[nH]nc(-c4cncc(O[C@@H]5CCCNC5)n4)c3c2)CCOC1 [Example 148, 5-(3,6-dihydro-2H-pyran-4-yl)-3-(6-((3R)-3-piperidinyloxy)-2-pyrazinyl)-1H-indazole]
pIC50 [1]: 8.22 | pIC50 [2]: 7.60 | pIC50 [3]: 8.15 | pIC50 [4, 5]: 6.50

c1cnnc(-c2ccc3[nH]nc(-c4cncc(O[C@@H]5CCCNC5)n4)c3c2)c1 [Example 149, 3-(6-((3R)-3-piperidinyloxy)-2-pyrazinyl)-5-(3-pyridazinyl)-1H-indazole]
pIC50 [1]: 8.22 | pIC50 [2]: 7.32 | pIC50 [3]: 8.15 | pIC50 [4, 5]: 6.53

COc1nccc(-c2ccc3[nH]nc(-c4cncc(O[C@@H]5CCCNC5)n4)c3c2)n1 [Example 152, 5-(2-methoxy-4-pyrimidinyl)-3-(6-((3R)-3-piperidinyloxy)-2-pyrazinyl)-1H-indazole]
pIC50 [1]: 8.15 | pIC50 [2]: 7.44 | pIC50 [3]: 8.15 | pIC50 [4, 5]: 5.98

CC(C)Oc1nccc(-c2ccc3[nH]nc(-c4cncc(O[C@@H]5CCCNC5)n4)c3c2)n1 [Example 153, 5-(2-(1-methylethoxy)-4-pyrimidinyl)-3-(6-((3R)-3-piperidinyloxy)-2-pyrazinyl)-1H-indazole]
pIC50 [1]: 7.92 | pIC50 [2]: 6.78 | pIC50 [3]: 7.57 | pIC50 [4, 5]: 6.76

C1=C(c2ccc3[nH]nc(-c4cncc(O[C@@H]5CCCNC5)n4)c3c2)COCC1 [Example 154, 5-(5,6-dihydro-2H-pyran-3-yl)-3-(6-((3R)-3-piperidinyloxy)-2-pyrazinyl)-1H-indazole]
pIC50 [1]: 7.82 | pIC50 [2]: 7.15 | pIC50 [3]: 7.80 | pIC50 [4, 5]: 6.11

NC1CCN(c2cncc(-c3c[nH]c4ccc(NC(=O)c5ccccc5)cc34)n2)CC1 [Example 235, N-(3-(6-(4-aminopiperidin-1-yl)pyrazin-2-yl)-1H-indol-5-yl)benzamide]
pIC50 [1]: 6.92 | pIC50 [2]: 5.73 | pIC50 [3]: 6.82

NC1CCN(c2cncc(-c3c[nH]c4ccc(C(=O)O)cc34)n2)CC1 [Example 237, 3-(6-(4-aminopiperidin-1-yl)pyrazin-2-yl)-1H-indole-5-carboxylic acid]
pIC50 [1]: 6.71 | pIC50 [2]: 6.49 | pIC50 [3]: 6.91

NC(=O)c1ccc2[nH]cc(-c3cncc(N4CCC(N)CC4)n3)c2c1 [Example 238, 3-(6-(4-aminopiperidin-1-yl)pyrazin-2-yl)-1H-indole-5-carboxamide]
pIC50 [1]: 6.97 | pIC50 [2]: 6.12 | pIC50 [3]: 6.51

CC(C)NC(=O)c1ccc2[nH]cc(-c3cncc(N4CCC(N)CC4)n3)c2c1 [Example 239, 3-(6-(4-aminopiperidin-1-yl)pyrazin-2-yl)-N-isopropyl-1H-indole-5-carboxamide]
pIC50 [1]: 6.78 | pIC50 [2]: < 5.52 | pIC50 [3]: 6.46

Source: patent US9090593B2, “Bicyclic compounds as Pim inhibitors” (AMGEN INC., priority 2010, dated 2015)
